The ED50 is the midpoint of the dose-response relation.

The test has as its system phenyl-para-quinone induced writhing. The test is described as follows: phenyl-para-quinone writhing assay in mice (analgesia). To be noted: Mus musculus, oral, read-out: Analgesic Activity ED50 (oral dose at which 50% of the phenyl-para-quinone induced writhing is inhibited). The format is in vivo. An excerpt:
Exptl. Biol. Med., 95,729 (1957)]. Presented in Table I is the analgesic effect of some of the compounds of the invention expressed as the oral dose at which 50% of the phenyl-para-quinone induced writhing is inhibited in the animals, i.e., the ED50 value.
A general note: Writhing tests count abdominal constrictions after an irritant is injected.
With `CC(=O)Nc1ccc(OC(=O)N(C)OC(C)=O)cc1` [4-(Acetylamino)phenyl-N-(acetyloxy)-N-methyl carbamate], the ED50 amounted to 42.7 mg/kg.
As to `CC(=O)Nc1ccc(OC(=O)N(C)OCc2ccccc2)cc1` [4-(acetylamino)phenyl-N-benzyloxy-N-methyl carbamate], the 50% effective dose (ED50) was 28.5 mg/kg.
With `CC(=O)Nc1ccc(OC(=O)N(C)O)cc1` [4-(Acetylamino)phenyl-N-hydroxy-N-methyl carbamate] the figure was 32.3 mg/kg.
In the case of `CC(=O)Nc1ccc(O)cc1` [Acetaminophen, reference compound] it was 33.8 mg/kg.

(Values after patent US5109011A, “P-acylaminophenoxycarbamates and derivatives” (Hoechst-Roussel Pharmaceuticals Incorporated, priority 1990, dated 1992).)
